Where “and” joins values, the source holds several entries; their conditions need not be identical. Equal entries are not always repeated.
How the values were obtained:
Type in all cases: cell-based, human
Cytokeratin 6 (CK6) = experiment: Immunohistochemical evaluation of cytokeratin 6 in proto-follicle microtissues; conditions: Inositol 0.5%, Inositol 0.25% + L-arginine 0.25%, Cyclosporin A 10 ng/mL; result in words
Protocol: (§1) The reconstituted proto-follicle was obtained by using fibroblast cells and human keratinocytes using the Gravity^PLUS™ method, a system developed by InSphero (InSphero AG, Zurich, Switzerland), which allows the formation of spheroids or micro-tissues of homogeneous size using the hanging drops technology. The micro-tissues were transferred to Gravity^TRAP plates for treatment and control of culture conditions: 37 °C incubator, 5% CO2, suitably saturated atmosphere of the culture medium.
(§2) In order to assess the biological effect of each of the above compositions on the micro-tissue cultures in question, the following parameters were measured: • Quantification of ATP, as a marker of cell viability. • Morphological evaluation during culture of the proto-follicle, by staining with hematoxylin-eosin (H&E). • Immunohistochemical evaluation of Cytokeratin 6 (CK6), wherein CK6 is a keratin type II present in the skin and the hair follicle, which has an important role in the formation of the intermediate filament and is involved in tissue remodeling during stress phenomena.
(§3) In order to observe the short- and long-term effect of the compositions mentioned above, the evaluation of the above parameters was made at 24H (T2) and 120H (T6) after the beginning of therapy.

type IV collagen (COLIV) = experiment: Semi-quantitative determination of type IV collagen by immunofluorescence (confocal microscopy); conditions: 120 H; duplicate (one row per replicate); Inositol 0.5%, Inositol + Arginine 0.25% + 0.25%
[1] = system: co-spheroidal culture DPF-ORSK; experiment: Morphological evaluation of proto-follicle microtissues by H&E staining; conditions: Inositol 0.5%, Inositol 0.25% + L-arginine 0.25%
Protocol: as §1, §2, §3

SMILES: O[C@H]1[C@H](O)[C@@H](O)[C@H](O)[C@@H](O)[C@H]1O [Inositol]
- follicular CK6 expression / proto-hair structure and coloring (Cytokeratin 6 (CK6)): not different from those shown by the samples treated with Cyclosporin A
- semi-quantitative analysis of COLIV (type IV collagen (COLIV)): 69 and 94
- morphological qualitative evaluation of micro-tissues (H&E) ([1]; T2 (24H)): more compact lamellar structure
- morphological qualitative evaluation of micro-tissues (H&E) ([1]; T6 (120H), Cyclosporin A 10 ng/mL): more compact lamellar structure
